How the values were obtained:
hepatitis B (HBV) = test: NIH hepatitis B screening; type: cell-based, hepatitis B virus; settings: negative because of cytotoxicity of the cell line used
Source text: The HBV research is run by the University of Georgetown (Dr. Brent Korba). The results with HBV were negative at this point because of cytotoxicity of the cell line used.

HCV RNA Replicons = test: HCV RNA replicon antiviral activity testing (luciferase); type: cell-based, Hepatitis C virus; settings: for inhibition at 20 µM: Hepatitis C virus, 20 micromolar, read-out: Antiviral Activity (luciferase, percent inhibition of virus control)
MMP-2 = target: T1, MMP-2 (Homo sapiens, UniProt P08253); test: MMP enzyme assay, fluorometric; type: biochemical
T1 sequence (P08253 110-660): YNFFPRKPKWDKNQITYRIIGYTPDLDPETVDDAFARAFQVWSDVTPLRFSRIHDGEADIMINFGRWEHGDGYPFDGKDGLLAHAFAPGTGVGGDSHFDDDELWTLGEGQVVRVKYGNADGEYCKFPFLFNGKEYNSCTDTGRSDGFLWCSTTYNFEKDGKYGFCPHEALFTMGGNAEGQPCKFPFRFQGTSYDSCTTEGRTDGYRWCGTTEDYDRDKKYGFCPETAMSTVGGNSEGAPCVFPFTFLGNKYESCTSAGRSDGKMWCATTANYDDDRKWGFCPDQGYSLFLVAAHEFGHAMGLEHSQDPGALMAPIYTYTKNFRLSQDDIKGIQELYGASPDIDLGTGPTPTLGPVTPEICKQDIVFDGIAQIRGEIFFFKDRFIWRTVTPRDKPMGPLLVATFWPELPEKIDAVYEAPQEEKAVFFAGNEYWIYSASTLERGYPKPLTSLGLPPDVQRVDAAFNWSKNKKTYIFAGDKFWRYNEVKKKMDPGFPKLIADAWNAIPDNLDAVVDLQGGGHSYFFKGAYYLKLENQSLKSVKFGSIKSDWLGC
Procedure: (§1) An enzyme assay was conducted with five of the enzymes belonging to the MMP group. Specifically, the assay was conducted for MMP-1, MMP-2, MMP-3, MMP-7, and MMP-9 at various concentrations.
(§2) A test substrate of Mca-Pro-Leu-Gly-Leu-Dpa-Ala-Arg-NH2 was subsequently added to obtain a concentration of 25 μM. MMP-1 was incubated for 2 hours at 37EC, MMP-2 was incubated for 3 hours at 25EC, MMP-3 was incubated for 90 min at 37EC. MMP-7 was incubated for 90 min at 37EC, and MMP-9 was incubated for 2 hours at 25 degrees Celsius. The activity of the enzymes was measured by fluorometric quantisation of Mca-Pro-Leu-Gly-OH.

MMP-7 = target: T2, MMP-7 (Homo sapiens, UniProt P09237); test: MMP enzyme assay, fluorometric; type: biochemical
T2 sequence (P09237 95-267): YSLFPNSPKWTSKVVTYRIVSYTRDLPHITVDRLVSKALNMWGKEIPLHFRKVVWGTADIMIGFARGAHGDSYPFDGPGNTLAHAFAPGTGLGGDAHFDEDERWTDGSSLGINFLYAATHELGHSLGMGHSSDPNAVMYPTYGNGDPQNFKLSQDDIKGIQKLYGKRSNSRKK
Procedure: as §1, §2

MMP-9 = MMP-9 (Homo sapiens, UniProt P14780); test: MMP enzyme assay, fluorometric; type: biochemical
MMP-9, sequence (P14780 94-707, species assumed): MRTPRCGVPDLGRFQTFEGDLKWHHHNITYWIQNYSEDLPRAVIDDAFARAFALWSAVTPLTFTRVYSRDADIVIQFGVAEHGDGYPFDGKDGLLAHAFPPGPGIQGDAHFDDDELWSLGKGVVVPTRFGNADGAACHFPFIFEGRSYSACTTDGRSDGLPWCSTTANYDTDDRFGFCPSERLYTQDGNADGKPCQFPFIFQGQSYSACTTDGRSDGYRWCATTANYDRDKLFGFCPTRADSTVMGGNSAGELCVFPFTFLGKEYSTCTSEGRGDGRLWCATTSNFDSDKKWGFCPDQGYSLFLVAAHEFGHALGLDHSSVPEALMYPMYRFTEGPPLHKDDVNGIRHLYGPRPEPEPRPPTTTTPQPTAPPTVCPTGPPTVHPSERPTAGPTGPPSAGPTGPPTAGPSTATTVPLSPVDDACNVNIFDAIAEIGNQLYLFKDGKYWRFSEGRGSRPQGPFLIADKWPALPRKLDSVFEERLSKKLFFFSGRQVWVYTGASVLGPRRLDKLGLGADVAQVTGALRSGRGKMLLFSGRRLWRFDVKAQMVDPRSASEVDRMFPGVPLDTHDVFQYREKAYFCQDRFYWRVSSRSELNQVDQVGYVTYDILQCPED
Procedure: as §1, §2

MMP-1 = target: T3, MMP-1 (Homo sapiens, UniProt P03956); test: MMP enzyme assay, fluorometric; type: biochemical
T3 sequence (P03956 100-469): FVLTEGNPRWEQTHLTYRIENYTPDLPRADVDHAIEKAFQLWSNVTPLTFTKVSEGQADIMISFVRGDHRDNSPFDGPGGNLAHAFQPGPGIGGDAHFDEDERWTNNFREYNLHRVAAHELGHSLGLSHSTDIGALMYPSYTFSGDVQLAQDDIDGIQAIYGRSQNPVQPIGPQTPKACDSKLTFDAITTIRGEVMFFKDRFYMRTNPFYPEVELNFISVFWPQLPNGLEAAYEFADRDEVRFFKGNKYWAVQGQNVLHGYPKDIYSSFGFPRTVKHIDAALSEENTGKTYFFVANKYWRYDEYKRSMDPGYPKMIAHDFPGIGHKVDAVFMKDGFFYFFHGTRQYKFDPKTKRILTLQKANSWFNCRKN
Procedure: as §1, §2

MMP-3 = MMP-3 (Homo sapiens, UniProt P08254); test: MMP enzyme assay, fluorometric; type: biochemical
MMP-3, sequence (P08254 100-477, species assumed): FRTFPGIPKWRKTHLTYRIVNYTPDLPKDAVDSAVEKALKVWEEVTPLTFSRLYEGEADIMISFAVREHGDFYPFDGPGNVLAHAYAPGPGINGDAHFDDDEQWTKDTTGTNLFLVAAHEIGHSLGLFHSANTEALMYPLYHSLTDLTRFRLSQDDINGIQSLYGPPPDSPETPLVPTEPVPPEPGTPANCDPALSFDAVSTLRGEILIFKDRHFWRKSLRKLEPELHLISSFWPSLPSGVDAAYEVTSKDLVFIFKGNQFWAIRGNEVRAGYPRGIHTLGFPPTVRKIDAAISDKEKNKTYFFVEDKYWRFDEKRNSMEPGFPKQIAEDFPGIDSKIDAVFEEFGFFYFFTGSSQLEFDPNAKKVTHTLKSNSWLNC
Procedure: as §1, §2

[1] = cited from earlier work
Huh7 ET = test: Cytotoxicity in the HCV replicon cell line (actively dividing cells); type: cell-based; settings: single high test concentration, 20 micromolar
Source text: The cell line used was Huh7 ET.

Aβ (1-40) = target: T4, Aβ (1-40) (Homo sapiens, UniProt P05067); test: Thioflavin T fluorometric assay of metal-ion induced Aβ aggregation; type: biochemical; settings: test compound 10 μg/ml, 24 hours
T4 construct: A 5 mg/ml stock solution of Aβ (1-40) (delivered from Bachem (CH)); purchased Bachem (CH)
T4 sequence (P05067 672-711 limits assumed): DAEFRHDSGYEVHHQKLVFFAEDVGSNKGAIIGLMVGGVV
Procedure: A 5 mg/ml stock solution of Aβ (1-40) (delivered from Bachem (CH)) was freshly prepared before each experiment by dissolving the lyophilized peptide in 0.01 M HCl, followed by subsequent dilution 1.1 with 0.01 M NaOH to yield a neutral pH. Aliquot of Aβ (1-40) were diluted in PBS (pH 7.4) to 100 [mu]M and incubated at a total volume of 30 μ/l for 24 hours at room temperature. For co-incubation experiments, the indicated concentrations of metal ions and/or aliquot of test compounds were added. The test compounds were added to a final molar concentration of 10 μg/ml.
The amyloid formation was quantified by a thioflavin T fluorometric assay. Thioflavin binds specifically to amyloid and this introduces a shift in its emission spectrum and a fluorescent signal proportional to the amount of amyloid is formed. After incubation, Aβ (1-40) peptides were added to PBS (pH 6.0) and 3 μM thioflavin T in a final volume of 1 ml. Fluorescence was monitored at excitation 454 nm and emission 482 nm using a Fluoroscan II fluorometer (Molecular devices, UK). A time scan of fluorescence was performed and three values after the decay reached a plateau (around 5 minutes) were averaged after subtracting the background fluorescence of 3 μM thioflavin T. For co-incubation experiments, fluorescence of test compound alone was determined. Samples were run in triplicate.
It was studied whether the two compounds had any effect on metal-ion catalysed Aβ aggregation, especially the aggregation caused by Zn and Cu.

[2] = brain; cited from earlier work
[3] = cited from earlier work; remark: listed apart in the source
PC12 cells = test: MTT reduction, Aβ (25-35) induced toxicity in PC12 cells; type: cell-based, Rat; settings: 10 μg phanquinone per ml
Procedure: Aβ (25-35) was delivered by Bachem (CH) or Sigma (USA) and dissolved in phosphate buffered saline (PBS) at pH 7, 4, 2 hours prior to application.
Rat PC12 pheochromocytoma cells were grown in Dulbecco's modified Eagle's medium (DMEM) containing 1% penicillin-streptomycin, 5% fetal calf serum and 10% horse serum in humidified incubator with 5% CO2.
PC12 cells were plated on 96-wells microtiter plates in 100 μl of the appropriate medium. After 24 hours the indicated concentrations of Aβ (25-35) peptide was added alone or together with phanquinone in the designated concentrations. Incubation continued for 24 hours. Following incubation, MTT reduction was measured using a commercially available assay according to the manufacturer's (Boehringer Mannheim) instructions. Assay values obtained by vehicle alone were defined as 100%.
MTT is a substrate for intracellular and plasma membrane oxidoreductases and has been widely used to measure reductions of cell redox activity.
To test the effect of phanquinone on Aβ (25-35) induced toxicity in PC12 cells, PC12 cells were exposed to Aβ (25-35) peptide concentrations ranging from 0 to 10 μM. In the absence of phanquinone (i.e. only vehicle added) Aβ (25-35) produced a dose-dependent inhibition of MTT reduction. […]

[4] = single high test concentration, Huh7 ET

In the case of `Oc1c(I)cc(Cl)c2cccnc12` [Clioquinol, 5-chloro-7-iodo-8-hydroxyquinoline], the “results with HBV” value (hepatitis B (HBV)) is reported as “negative”, the inhibition at 20 µM (HCV RNA Replicons; [4]) is reported as 82.3% and the “selectivity index S150” value (HCV RNA Replicons; retesting dose response) is reported as “over 4.8”. The “selectivity index S190” value (HCV RNA Replicons; retesting dose response) was 14, the “Comments (screening verdict)” value (HCV RNA Replicons; [4]) was “Potentially active” and the inhibition at 100 µM (MMP-2) was 28%. It also gave an inhibition at 1000 µM (MMP-2) of 26%, an inhibition at 10000 µM (MMP-2) of 101% and an inhibition at 100 µM (MMP-7) of 20%. It also gave an inhibition at 100 µM (MMP-9) of 19%, an inhibition at 100 µM (MMP-1) of 12% and an inhibition at 100 µM (MMP-3) of 7%. For the same compound, the solubility in water [1] was “Practically insoluble in water”, the “Cytotoxicity (actively dividing cells, percent cell control)” value (Huh7 ET) was 73.3% and the “reduction of Cu-induced aggregation of Aβ (1-40)” value (Aβ (1-40)) was “approximately 30%”. The “reduction of Zn-induced aggregation of Aβ (1-40)” value (Aβ (1-40)) was “more than 60%”.

For `O=C1C(=O)c2ncccc2-c2cccnc21` [Phanquinone, 4,7-phenanthroline-5,6-dione], the “ability of copper chelation compared to clioquinol” value [2] is listed as “three times more pronounced”, the “results with HBV” value (hepatitis B (HBV)) is listed as “negative” and the inhibition at 20 µM (HCV RNA Replicons; [4]) is listed as 83.2%. For the same compound, the “activity against HCV RNA replicons” value (HCV RNA Replicons; retest with dose response curve, Huh7 ET) was “no activity”, the “Comments (screening verdict)” value (HCV RNA Replicons; [4]) was “Toxic” and the “Selectivity Index” value (HCV RNA Replicons; [4]) was less than 1. For the same compound, the “Cytotoxicity (actively dividing cells, percent cell control)” value (Huh7 ET) was 10.5%, the “reduction of Cu-induced aggregation of Aβ (1-40)” value (Aβ (1-40)) was 50-60% and the “reduction of Zn-induced aggregation of Aβ (1-40)” value (Aβ (1-40)) was “approximately 10%”. For the same compound, the “adverse effect on the nervous system” value ([3]; in vivo) was “no evidence”, the “deaths, fetal malformations, drug interactions or carcinogenicity related to treatment” value ([3]; in vivo) was “no reports” and the tolerability ([3]; most often 200-400 mg/day for 7 to 10 days) was “well tolerated”. The “inhibition of MTT reduction by Aβ (25-35)” value (PC12 cells; Aβ 10 μM, 24 hours) was “around 10%” and the “effect on the toxic effect of Aβ (25-35)” value (PC12 cells; Aβ as high as 1 μM) was “completely counteracted”.
